{"source": "patent EP4729513A1", "about": "“A-KETO ACID AMIDE OR SUBSTITUTED OXALIC ACID AMIDE ESTER COMPOUND AND COMPOSITION THEREOF” (Nanjing Chempion Biotechnology Co., Ltd., priority 2023, dated 2025)"}
{"molecular_target": "T1, human TYR (Homo sapiens, UniProt P14679)", "T1 sequence (P14679 19-529)": "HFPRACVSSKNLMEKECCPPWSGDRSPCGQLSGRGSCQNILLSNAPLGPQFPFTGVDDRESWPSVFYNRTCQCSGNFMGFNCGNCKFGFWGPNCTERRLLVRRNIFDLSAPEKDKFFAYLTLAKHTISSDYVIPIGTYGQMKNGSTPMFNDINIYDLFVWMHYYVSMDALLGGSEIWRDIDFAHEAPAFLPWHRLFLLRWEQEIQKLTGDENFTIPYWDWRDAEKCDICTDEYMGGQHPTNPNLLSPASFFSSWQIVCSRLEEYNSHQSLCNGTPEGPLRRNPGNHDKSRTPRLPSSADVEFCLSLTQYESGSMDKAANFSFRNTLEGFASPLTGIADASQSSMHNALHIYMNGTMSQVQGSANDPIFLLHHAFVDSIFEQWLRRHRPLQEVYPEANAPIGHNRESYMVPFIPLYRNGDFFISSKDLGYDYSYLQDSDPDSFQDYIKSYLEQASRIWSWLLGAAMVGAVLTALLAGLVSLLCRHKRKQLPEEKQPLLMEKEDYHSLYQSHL", "test": "TYR inhibitory activity by modified MBTH (3-methyl-2-benzothiazolinone hydrazine) method", "assay_type": "biochemical", "conditions": "compound concentration 2 µg/mL; levodopa oxidized by human TYR, MBTH chromogenic reagent, absorbance at 505 nm", "description": "A TYR inhibitory activity of a compound was assessed by a 3-methyl-2-benzothiazolinone hydrazine (MBTH) method modified with reference to the existing report (Journal of Biochemical and Biophysical Methods, 1994, 28 (3): 173-183). With MBTH as a chromogenic reagent, an inhibitory activity of a compound against human TYR was determined as follows: Levodopa was oxidized into L-dopaquinone by the human TYR. MBTH was then allowed to undergo a reaction with the L-dopaquinone to produce a colored product. The reaction was terminated, and the specific absorbance of the colored product at 505 nm was measured.", "units": {"inhibition at 2 µg/mL": "%"}}
{"smiles": "O=C(Nc1nc(-c2ccc(O)cc2O)cs1)C(=O)C1CCCCC1", "note": "[2-cyclohexyl-N-(4-(2,4-dihydroxyphenyl)thiazol-2-yl)-2-oxoacetamide]", "inhibition at 2 µg/mL": 65}
{"smiles": "O=C(Nc1nc(-c2ccc(O)cc2O)cs1)C(=O)C1CC1", "note": "[2-cyclopropyl-N-(4-(2,4-dihydroxyphenyl)thiazol-2-yl)-2-oxoacetamide]", "inhibition at 2 µg/mL": 75.3}
{"smiles": "O=C(Nc1nc(-c2ccc(O)cc2O)cs1)C(=O)OC1CC1", "note": "[Cyclopropyl 2-((4-(2,4-dihydroxyphenyl)thiazol-2-yl)amino)-2-oxoacetate]", "inhibition at 2 µg/mL": 85.8}
{"smiles": "CCOC(=O)C(=O)Nc1nc(-c2ccc(O)cc2O)cs1", "note": "[Ethyl 2-((4-(2,4-dihydroxyphenyl)thiazol-2-yl)amino)-2-oxoacetate]", "inhibition at 2 µg/mL": 89.6}
{"smiles": "COC(=O)C(=O)Nc1nc(-c2ccc(O)cc2O)cs1", "note": "[Methyl 2-((4-(2,4-dihydroxyphenyl)thiazol-2-yl)amino)-2-oxoacetate]", "inhibition at 2 µg/mL": 88.1}
{"smiles": "O=C(Nc1nc(-c2ccc(O)cc2O)cs1)C(=O)N1CCCC1", "note": "[N-(4-(2,4-Dihydroxyphenyl)thiazol-2-yl)-2-oxo-2-(pyrrolidin-1-yl)oxalamide]", "inhibition at 2 µg/mL": 93.5}
{"smiles": "O=C(Nc1nc(-c2ccc(O)cc2O)cs1)C(=O)N1CCOCC1", "note": "[N-(4-(2,4-dihydroxyphenyl)thiazol-2-yl)-2-morpholino-2-oxoacetamide]", "inhibition at 2 µg/mL": 86.1}
{"smiles": "CCC(=O)C(=O)Nc1nc(-c2ccc(O)cc2O)cs1", "note": "[N-(4-(2,4-dihydroxyphenyl)thiazol-2-yl)-2-oxobutanamide]", "inhibition at 2 µg/mL": 90}
{"smiles": "CC(=O)C(=O)Nc1nc(-c2ccc(O)cc2O)cs1", "note": "[N-(4-(2,4-dihydroxyphenyl)thiazol-2-yl)-2-oxopropanamide]", "inhibition at 2 µg/mL": 92.6}
{"smiles": "O=C(Nc1nc(-c2ccc(O)cc2O)cs1)C(=O)N1CCSCC1", "note": "[N-(4-(2,4-dihydroxyphenyl)thiazol-2-yl)-2-thiomorpholin-2-oxoacetamide]", "inhibition at 2 µg/mL": 76.5}
{"smiles": "CC(C)C(=O)C(=O)Nc1nc(-c2ccc(O)cc2O)cs1", "note": "[N-(4-(2,4-dihydroxyphenyl)thiazol-2-yl)-3-methyl-2-oxobutanamide]", "inhibition at 2 µg/mL": 78.5}
{"smiles": "CCN(CC)C(=O)C(=O)Nc1nc(-c2ccc(O)cc2O)cs1", "note": "[N-(4-(2,4-dihydroxyphenyl)thiazol-2-yl)-N',N'-diethyloxalamide]", "inhibition at 2 µg/mL": 89.2}
{"smiles": "CN(C)C(=O)C(=O)Nc1nc(-c2ccc(O)cc2O)cs1", "note": "[N-(4-(2,4-dihydroxyphenyl)thiazol-2-yl)-N',N'-dimethyloxalamide]", "inhibition at 2 µg/mL": 90.7}
{"smiles": "CC(C)NC(=O)C(=O)Nc1nc(-c2ccc(O)cc2O)cs1", "note": "[N-(4-(2,4-dihydroxyphenyl)thiazol-2-yl)-N'-isopropyloxalamide]", "inhibition at 2 µg/mL": 96.7}
